We go through 33 compounds from patent US20250101034A1, “COMPOSITIONS USEFUL FOR MODULATING SPLICING” (SKYHAWK THERAPEUTICS, INC., priority 2021, published 2025).

For orientation: IC50 means the concentration that gives 50% inhibition.

In test [1] the test system is ATXN3 transcripts containing exon 4 (E4E5). In words: ATXN3 quantitative splicing assay (qPCR, SK-N-MC cells). It is filed as cell-based. The note with it: Homo sapiens, 24 h treatment, qPCR E4E5 primers/probe, read-out: ATXN3 Potency - Splicing E4E5 IC50. The procedure, abridged: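 SK-N-MC cells treated 24 h with compound (30 μM to 0.6 nM, 0.3% DMSO) 24 h after plating; lysates reverse-transcribed and analysed by TaqMan qPCR. E4E5 primers/probe detect exon 4–containing transcripts; E8E9 measures total ATXN3, alongside exon 4–skipped transcript detection.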
Background: Real-time PCR tracks product formation cycle by cycle.

Test [2] has as its system total ATXN3 protein. Description: ATXN3 total protein assay (MSD, SK-N-MC cells). Particulars: 48 hours incubation, read-out: ATXN3 Potency - Protein IC50. The format is cell-based, Human. The procedure, abridged:
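SK-N-MC human neuroblastoma cells treated with compound (30 μM to 0.6 nM) for 48 h, then lysed with protease inhibitors. Total ATXN3 measured by MSD sandwich immunoassay (mouse capture, rabbit detection antibodies, anti-rabbit MSD-ST secondary), quantified against recombinant ATXN3 standards.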

Take `Cc1c(C[C@H]2CCN2)sc2c(NCc3cccs3)cnnc12` [Compound 72, 6-{[(2R)-azetidin-2-yl]methyl}-7-methyl-N-[(thiophen-2-yl)methyl]thieno[3,2-c]pyridazin-4-amine]: the IC50 in test [1] and in test [2] was 10 to 40 µM each time.
As to `Cc1c(CC2CNC2)sc2c(NCc3cccs3)cnnc12` [Compound 73, 6-[(azetidin-3-yl)methyl]-7-methyl-N-[(thiophen-2-yl)methyl]thieno[3,2-c]pyridazin-4-amine], the IC50 in test [1] and in test [2] was 10 to 40 µM throughout.
Turning to `COc1ccsc1CNc1cnnc2c(C)c(C[C@H](C)N)sc12` [Compound 74, 6-[(2S)-2-aminopropyl]-N-[(3-methoxythiophen-2-yl)methyl]-7-methylthieno[3,2-c]pyridazin-4-amine], the concentration for half-maximal inhibition (IC50) in test [1] and in test [2] was 10 to 40 µM in each case.
With `COc1csc(CNc2cnnc3c(C)c(C[C@H](C)N)sc23)c1` [Compound 75, 6-[(2S)-2-aminopropyl]-N-[(4-methoxythiophen-2-yl)methyl]-7-methylthieno[3,2-c]pyridazin-4-amine], the IC50 in test [1] and in test [2] was 10 to 40 µM in each case.
In the case of `COc1ccc(CNc2cnnc3c(C)c(C[C@H](C)N)sc23)s1` [Compound 76, 6-[(2S)-2-aminopropyl]-N-[(5-methoxythiophen-2-yl)methyl]-7-methylthieno[3,2-c]pyridazin-4-amine], the IC50 in test [1] and in test [2] was 10 to 40 µM each time.
For `C[C@H](N)Cc1sc2c(NCc3cccs3)cnnc2c1C1CC1` [Compound 80, 6-[(2S)-2-aminopropyl]-7-cyclopropyl-N-[(thiophen-2-yl)methyl]thieno[3,2-c]pyridazin-4-amine], the IC50 in test [1] and in test [2] was 0.501 to 5 µM each time.
Turning to `Cc1c(C[C@H](C)N)sc2c(Nc3cccs3)cnnc12` [Compound 82, 6-[(2S)-2-aminopropyl]-7-methyl-N-(thiophen-2-yl)thieno[3,2-c]pyridazin-4-amine], the IC50 in test [1] and in test [2] was 10 to 40 µM in each case.
Turning to `COc1nnc2c(C)c(C[C@H](C)N)sc2c1NCc1cccs1` [Compound 86, 6-[(2S)-2-aminopropyl]-3-methoxy-7-methyl-N-[(thiophen-2-yl)methyl]thieno[3,2-c]pyridazin-4-amine], the IC50 in test [1] and in test [2] was 10 to 40 µM each time.
As for `Cc1csc2c(NCc3cccs3)c(Br)nnc12` [Compound 87, 3-bromo-7-methyl-N-[(thiophen-2-yl)methyl]thieno[3,2-c]pyridazin-4-amine], the IC50 in test [1] and in test [2] was 10 to 40 µM throughout.
As to `Cc1csc2c(NC(=O)c3cccs3)cnnc12` [Compound 89, N-{7-methylthieno[3,2-c]pyridazin-4-yl}thiophene-2-carboxamide], the IC50 in test [1] and in test [2] was 10 to 40 µM each time.
`C[C@H](N)Cc1sc2c(NCc3cccs3)cnnc2c1O` [Compound 90, 6-[(2S)-2-aminopropyl]-4-[(thiophen-2-ylmethyl)amino]thieno[3,2-c]pyridazin-7-ol]: the IC50 in test [1] and in test [2] was 10 to 40 µM each time.
On to `N[C@@H](CO)Cc1sc2c(NCc3cccs3)cnnc2c1Cl` [Compound 91, (2R)-2-amino-3-(7-chloro-4-{[(thiophen-2-yl)methyl]amino}thieno[3,2-c]pyridazin-6-yl)propan-1-ol], for which the IC50 in test [1] and in test [2] was 0.101 to 0.5 µM in each case.
Turning to `Cc1c(CC2(N)COC2)sc2c(NCc3cccs3)cnnc12` [Compound 92, 6-[(3-aminooxetan-3-yl)methyl]-7-methyl-N-[(thiophen-2-yl)methyl]thieno[3,2-c]pyridazin-4-amine], the IC50 in test [1] and in test [2] was 10 to 40 µM each time.
For the compound `Cc1c(CC(N)C2COC2)sc2c(NCc3cccs3)cnnc12` (stereo not drawn) [Compound 93, 6-[2-amino-2-(oxetan-3-yl)ethyl]-7-methyl-N-[(thiophen-2-yl)methyl]thieno[3,2-c]pyridazin-4-amine], the IC50 in test [1] fell in the range of 5 to 10 µM; in test [2] it was 0.501 to 5 µM.
In the case of `N[C@@H](CO)Cc1sc2c(NCc3cccs3)cnnc2c1Br` [Compound 94, (2R)-2-amino-3-(7-bromo-4-{[(thiophen-2-yl)methyl]amino}thieno[3,2-c]pyridazin-6-yl)propan-1-ol], the IC50 in test [1] and in test [2] was 0.101 to 0.5 µM each time.
Consider `N[C@@H](CO)Cc1sc2c(NCc3ccco3)cnnc2c1Br` [Compound 95, (2R)-2-amino-3-(7-bromo-4-{[(furan-2-yl)methyl]amino}thieno[3,2-c]pyridazin-6-yl)propan-1-ol], for which the figures for the IC50 in test [1] and in test [2] were 0.501 to 5 µM and 0.101 to 0.5 µM, respectively.
For `N[C@@H](CO)Cc1sc2c(NCc3ccco3)cnnc2c1Cl` [Compound 96, (2R)-2-amino-3-(7-chloro-4-{[(furan-2-yl)methyl]amino}thieno[3,2-c]pyridazin-6-yl)propan-1-ol], the IC50 in test [1] and in test [2] was 0.101 to 0.5 µM in each case.
Turning to `Cc1c(C[C@H](C)N)sc2c(NCc3cccs3)c(F)nnc12` [Compound 97, 6-[(2S)-2-aminopropyl]-3-fluoro-7-methyl-N-[(thiophen-2-yl)methyl]thieno[3,2-c]pyridazin-4-amine], the IC50 in test [1] and in test [2] was 0.101 to 0.5 µM each time.
On to `Cc1c(CC#N)sc2c(NCc3cccs3)cnnc12` [Compound 98, 2-{7-methyl-4-[(thiophen-2-ylmethyl)amino]thieno[3,2-c]pyridazin-6-yl}acetonitrile], for which the IC50 in test [1] and in test [2] was 10 to 40 µM in each case.
In the case of `Cc1c([C@H](C)[C@@H](C)N)sc2c(NCc3cccs3)cnnc12` [Compound 99, 6-[(2R,3R)-3-aminobutan-2-yl]-7-methyl-N-[(thiophen-2-yl)methyl]thieno[3,2-c]pyridazin-4-amine], the IC50 in test [1] and in test [2] was 10 to 40 µM throughout.
As for `C[C@H](N)Cc1sc2c(NCc3ccco3)cnnc2c1Br` [Compound 100, 6-[(2S)-2-aminopropyl]-7-bromo-N-[(furan-2-y1)methyl]thieno[3,2-c]pyridazin-4-amine], the IC50 in test [1] and in test [2] was 0.101 to 0.5 µM in each case.
Regarding `C[C@H](N)Cc1sc2c(NCc3ccco3)cnnc2c1Cl` [Compound 101, 6-[(2S)-2-aminopropyl]-7-chloro-N-[(furan-2-yl)methyl]thieno[3,2-c]pyridazin-4-amine], the IC50 in test [1] and in test [2] was 0.101 to 0.5 µM in each case.
Consider `Cc1c([C@@H](C)[C@@H](C)N)sc2c(NCc3cccs3)cnnc12` [Compound 102, 6-[(2S,3R)-3-aminobutan-2-yl]-7-methyl-N-[(thiophen-2-yl)methyl]thieno[3,2-c]pyridazin-4-amine], for which the IC50 in test [1] and in test [2] was 10 to 40 µM throughout.
Take `Cc1c(CC(C)CN)sc2c(NCc3cccs3)cnnc12` (stereo not drawn) [Compound 104, 6-(3-amino-2-methylpropyl)-7-methyl-N-[(thiophen-2-yl)methyl]thieno[3,2-c]pyridazin-4-amine]: the IC50 in test [1] and in test [2] was 10 to 40 µM throughout.
In the case of `Cc1c(CC(N)=O)sc2c(NCc3cccs3)cnnc12` [Compound 105, 2-(7-methyl-4-{[(thiophen-2-yl)methyl]amino}thieno[3,2-c]pyridazin-6-yl)acetamide], the IC50 in test [1] and in test [2] was 10 to 40 µM throughout.
For `CC#Cc1c(C[C@H](C)N)sc2c(NCc3cccs3)cnnc12` [Compound 107, 6-[(2S)-2-aminopropyl]-7-(prop-1-yn-1-yl)-N-[(thiophen-2-yl)methyl]thieno[3,2-c]pyridazin-4-amine], the IC50 in test [1] and in test [2] was 0.101 to 0.5 µM throughout.
As for `Cc1c(C[C@@H](N)[C@H](C)F)sc2c(NCc3cccs3)cnnc12` [Compound 110, 6-[(2R,3S)-2-amino-3-fluorobutyl]-7-methyl-N-[(thiophen-2-yl)methyl]thieno[3,2-c]pyridazin-4-amine], the IC50 in test [1] and in test [2] was 0.101 to 0.5 µM each time.
For the compound `Cc1c(C[C@@H](N)[C@@H](C)F)sc2c(NCc3cccs3)cnnc12` [Compound 111, 6-[(2R,3R)-2-amino-3-fluorobutyl]-7-methyl-N-[(thiophen-2-yl)methyl]thieno[3,2-c]pyridazin-4-amine], the 50% inhibitory concentration (IC50) in test [1] and in test [2] was 0.501 to 5 µM throughout.
For `C[C@H](N)Cc1sc2c(N[C@@H](C)c3cccs3)cnnc2c1Br` [Compound 112, 6-[(2S)-2-aminopropyl]-7-bromo-N-[(1S)-1-(thiophen-2-yl)ethyl]thieno[3,2-c]pyridazin-4-amine], the IC50 in test [1] and in test [2] was 10 to 40 µM each time.
As for `C[C@H](N)Cc1sc2c(N[C@H](C)c3cccs3)cnnc2c1Br` [Compound 113, 6-[(2S)-2-aminopropyl]-7-bromo-N-[(1R)-1-(thiophen-2-yl)ethyl]thieno[3,2-c]pyridazin-4-amine], the IC50 in test [1] and in test [2] was 10 to 40 µM each time.
In the case of `Cc1c(CO)sc2c(NCc3cccs3)cnnc12` [Compound 114, (7-methyl-4-{[(thiophen-2-yl)methyl]amino}thieno[3,2-c]pyridazin-6-yl)methanol], the IC50 in test [1] and in test [2] was 10 to 40 µM each time.
As for `C#Cc1c(C[C@H](C)N)sc2c(NCc3ccco3)cnnc12` [Compound 115, 6-[(2S)-2-aminopropyl]-7-ethynyl-N-[(furan-2-y1)methyl]thieno[3,2-c]pyridazin-4-amine], the IC50 in test [1] lay within 1e-05 to 0.1 µM; in test [2], 0.101 to 0.5 µM.
With `C#Cc1c(C[C@H](C)N)sc2c(NCc3cccs3)cnnc12` [Compound 116, 6-[(2S)-2-aminopropyl]-7-ethynyl-N-[(thiophen-2-yl)methyl]thieno[3,2-c]pyridazin-4-amine], the IC50 was 1e-05 to 0.1 µM in test [1] and 0.101 to 0.5 µM in test [2].
